Test [1] concerns Candida albicans. Kind of test: microbe, parasite or virus in culture. Particulars: ATCC 90028, ASSAY_TEST Inhibition of Fungal Growth, detection method Absorption (OD530), plate type 384well, NBS, CORNING #3640.
Description: Antifungal activity against Candida albicans ATCC 90028 (CO-ADD:FG_001); MIC in YNB media using NBS plates, by OD630
The subject of test [2] is Cryptococcus neoformans.
Description: Antifungal activity against Cryptococcus neoformans H99 ATCC 208821 (CO-ADD:FG_002); MIC in YNB media using NBS plates, by Resazurin OD(600-570)
Test [3] has as its system Escherichia coli. Kind of test: microbe, parasite or virus in culture. Particulars: ATCC 25922, 18 h, ASSAY_TEST Inhibition of Bacterial Growth, detection method Absorption (OD600), MEDIA CAMHB, plate type 384well, NBS, CORNING #3640.
Description: Antibacterial activity against Escherichia coli ATCC 25922 (CO-ADD:GN_001); MIC in CAMBH media using NBS plates, by OD(600)
For test [4], the system named is Staphylococcus aureus. Kind of test: microbe, parasite or virus in culture. The conditions noted are these: ATCC 43300, 18 h, ASSAY_TEST Inhibition of Bacterial Growth, detection method Absorption (OD600), MEDIA CAMHB, plate type 384well, NBS, CORNING #3640.
Description: Antibacterial activity against Staphylococcus aureus MRSA ATCC 43300 (CO-ADD:GP_020); MIC in CAMBH media, using NBS plates, by OD(600)
For test [5], the system named is HEK293. Kind of test: cells. It is filed as functional, Homo sapiens, ATCC CRL1573. Particulars: Homo sapiens, ATCC CRL1573, HEK293; ASSAY_TEST Inhibition of Cell Viability; detection method Resazurin; Fluorescence (ex560/em590); MEDIA DMEM with 10% FBS; plate type 384well; TC; CORNING #3712; time 18 hr; read-out: CC50. Background: Resazurin is reduced to fluorescent resorufin, in cell work by metabolically active cells.

Test [6] concerns Acinetobacter baumannii. In words: microbe, parasite or virus in culture. The conditions noted are these: ATCC 19606, 18 h, ASSAY_TEST Inhibition of Bacterial Growth, detection method Absorption (OD600), MEDIA CAMHB, plate type 384well, NBS, CORNING #3640.
Description: Antibacterial activity against Acinetobacter baumannii ATCC 19606 (CO-ADD:GN_034); MIC in CAMBH media using NBS plates, by OD600
Test [7] concerns Klebsiella pneumoniae. Kind of test: microbe, parasite or virus in culture. Particulars: ATCC 700603, 18 h, ASSAY_TEST Inhibition of Bacterial Growth, detection method Absorption (OD600), MEDIA CAMHB, plate type 384well, NBS, CORNING #3640.
Description: Antibacterial activity against Klebsiella pneumoniae MDR ATCC 70063 (CO-ADD:GN_003); MIC in CAMBH media using NBS plates, by OD(600)
For test [8], the system named is Pseudomonas aeruginosa. In words: microbe, parasite or virus in culture. The conditions noted are these: ATCC 27853, 18 h, ASSAY_TEST Inhibition of Bacterial Growth, detection method Absorption (OD600), MEDIA CAMHB, plate type 384well, NBS, CORNING #3640.
Description: Antibacterial activity against Pseudomonas aeruginosa ATCC 27853 (CO-ADD:GN_042); MIC in CAMBH media using NBS plates, by OD(600)

The source of these data is ChEMBL document CHEMBL4513139, “CO-ADD screening of University of Strathclyde (UK) compounds”.

Values after ≈ are worked out from the molar mass of the structure shown.

One may read the CC50 as the concentration at which the toxic effect on the cells reaches its halfway point. Take `Cn1cc(NC(=O)c2ccc(/C=C/c3ccncc3)cc2)cc1C(=O)Nc1cc(C(=O)NCCN2CCOCC2)n(CCCCl)c1.O=C(O)C(F)(F)F.O=C(O)C(F)(F)F`: the MIC in test [1] is over 32 µg/mL; in test [2] it was 16 µg/mL; in test [3], over 32 µg/mL; in test [4] it was over 32 µg/mL; in test [6] it was over 32 µg/mL; in test [7] it was over 32 µg/mL. This compound also came in with an MIC in test [8] of over 32 µg/mL. Moreover, the CC50 in test [5] came out at 2.7 µg/mL.
As for `CC(C)CCn1cc(NC(=O)c2cc(NC(=O)c3cc(NC(=N)c4cnc5ccccc5c4)cn3C)cn2C)cc1C(=O)NCCCN(C)C.O=C(O)C(F)(F)F.O=C(O)C(F)(F)F`, the MIC in test [1] was over 32 µg/mL; in test [2], 8 µg/mL; in test [3], 32 µg/mL; in test [4], 32 µg/mL; in test [6] it was over 32 µg/mL; in test [7], over 32 µg/mL. The compound further showed an MIC in test [8] of over 32 µg/mL. Besides, the CC50 in test [5] amounted to 11.6 µg/mL.
As for `COc1ccc(/C=C/c2ccc(C(=O)Nc3cc(C(=O)Nc4cc(C(=O)NCCN5CCOCC5)n(C)c4)n(C)c3)cn2)cc1.O=C(O)C(F)(F)F.O=C(O)C(F)(F)F`, the MIC in test [1], in test [2], in test [3], in test [4], in test [6] and in test [7] was over 32 µg/mL in each case. The MIC in test [8] is over 32 µg/mL. For the same compound, in test [5], the CC50 came out at 27.1 µg/mL.
In the case of `Cn1cc(NC(=O)c2ccc(/C=C/c3cnc4ccccc4c3)cc2)cc1C(=O)Nc1nc(C(=O)NCCN2CCOCC2)c(CCc2ccccc2)s1.O=C(O)C(F)(F)F.O=C(O)C(F)(F)F`, the MIC in test [1], in test [2], in test [3], in test [4], in test [6] and in test [7] was over 32 µg/mL throughout. Moreover, in test [8], the MIC is over 32 µg/mL. Also, in test [5], the CC50 is over 32 µg/mL.
Turning to `CC(C)CCn1cc(NC(=O)c2cc(NC(=O)c3cc(NC(=N)N)cn3C)cn2C)cc1C(=O)NCCCN(C)C.O=C(O)C(F)(F)F.O=C(O)C(F)(F)F`, the MIC in test [1] was over 32 µg/mL; in test [2], 32 µg/mL; in test [3], over 32 µg/mL; in test [4], over 32 µg/mL; in test [6], over 32 µg/mL; in test [7] it was over 32 µg/mL. In test [8], this compound had an MIC of over 32 µg/mL. Besides, in test [5], the CC50 is over 32 µg/mL.
With `Cn1cc(NC(=O)c2ccc(/C=C/c3ccncc3)cc2)cc1C(=O)Nc1cc(C(=O)NCCN2CCOCC2)n(CCCN2CCN(Cc3cccc4ccccc34)CC2)c1.O=C(O)C(F)(F)F.O=C(O)C(F)(F)F.O=C(O)C(F)(F)F.O=C(O)C(F)(F)F`, the MIC in test [1] is 32 µg/mL; in test [2], 2 µg/mL; in test [3], over 32 µg/mL; in test [4], over 32 µg/mL; in test [6] it was over 32 µg/mL; in test [7], over 32 µg/mL. For the same compound, the MIC in test [8] is over 32 µg/mL. In addition, the CC50 in test [5] was determined as 2.03 µg/mL.
Turning to `COCCOC1CCN(CCNC(=O)c2cc(NC(=O)c3cc(NC(=O)c4ccc(/C=C/c5ccc(OC)cc5)nc4)cn3C)cn2C)CC1`, the MIC was over 32 µg/mL in test [1]; over 32 µg/mL in test [2]; over 32 µg/mL in test [3]; 2 µg/mL in test [4]; over 32 µg/mL in test [6]; over 32 µg/mL in test [7]. In test [8], this compound registered an MIC of over 32 µg/mL. The CC50 in test [5] came out at 3 µg/mL (≈ 4.39 µM).
Consider `COc1ccc(C(=N)Nc2cc(C(=O)Nc3cc(C(=O)NCCN4CCOCC4)n(CCCc4cn(CCc5ccccc5)nn4)c3)n(C)c2)cc1.O=C(O)C(F)(F)F.O=C(O)C(F)(F)F`, for which the MIC in test [1], in test [2], in test [3], in test [4], in test [6] and in test [7] was over 32 µg/mL throughout. In test [8], this compound yielded an MIC of over 32 µg/mL. For the same compound, the CC50 in test [5] was over 32 µg/mL.
Take `COc1ccc(/C=C/c2ccc(C(=O)Nc3cc(C(=O)Nc4cc(C(=O)NCCN5CCOCC5)n(CCCc5cn(CCc6ccccc6)nn5)c4)n(C)c3)cn2)cc1`: the MIC in test [1], in test [2], in test [3], in test [4], in test [6] and in test [7] was over 32 µg/mL throughout. Also, the MIC in test [8] was over 32 µg/mL. The CC50 in test [5] was over 32 µg/mL.
Turning to `COc1cccc(C(=N)Nc2cc(C(=O)Nc3cc(C(=O)Nc4nc(C(=O)NCCCN(C)C)c(CCC(C)C)s4)n(C)c3)n(C)c2)c1.O=C(O)C(F)(F)F.O=C(O)C(F)(F)F`, the MIC in test [1] is over 32 µg/mL; in test [2], 2 µg/mL; in test [3], 32 µg/mL; in test [4], 2 µg/mL; in test [6], over 32 µg/mL; in test [7], over 32 µg/mL. Besides, in test [8], the MIC is over 32 µg/mL. For the same compound, the CC50 in test [5] was over 32 µg/mL.
For the compound `COCCOC1CCN(CCNC(=O)c2cc(NC(=O)c3cc(NC(=O)c4ccc(/C=C/c5ccc(OC)cc5)cc4)cn3C)cn2C)CC1.O=S(=O)(O)O`, the MIC in test [1] is over 32 µg/mL; in test [2], over 32 µg/mL; in test [3], over 32 µg/mL; in test [4], 16 µg/mL; in test [6], over 32 µg/mL; in test [7], over 32 µg/mL. In addition, the MIC in test [8] is over 32 µg/mL. For the same compound, the 50% cytotoxic concentration (CC50) in test [5] came to 1.57 µg/mL.
`COc1cccc(C(=N)Nc2cc(C(=O)Nc3nc(C(=O)NCCN4CCOCC4)c(CCc4ccccc4)s3)n(C)c2)c1.O=C(O)C(F)(F)F.O=C(O)C(F)(F)F`: the MIC in test [1] is over 32 µg/mL; in test [2], 16 µg/mL; in test [3], over 32 µg/mL; in test [4] it was 32 µg/mL; in test [6] it was over 32 µg/mL; in test [7] it was over 32 µg/mL. The MIC in test [8] was over 32 µg/mL. For the same compound, the CC50 in test [5] stood at 2.59 µg/mL.
For `COc1cccc(/C=C/c2ccc(C(=O)Nc3cc(C(=O)Nc4cc(C(=O)NCCN5CCC(O)CC5)n(C)c4)n(C)c3)cc2)c1.O=C(O)C(F)(F)F`, the MIC in test [1] is over 32 µg/mL; in test [2] it was over 32 µg/mL; in test [3] it was over 32 µg/mL; in test [4] it was 16 µg/mL; in test [6], over 32 µg/mL; in test [7], over 32 µg/mL. Also, the MIC in test [8] is over 32 µg/mL. For the same compound, the CC50 in test [5] turned out to be 11.7 µg/mL.
Take `Cn1cc(NC(=O)c2ccc(/C=C/c3ccncc3)cc2)cc1C(=O)Nc1cc(C(=O)NCCN2CCOCC2)n(CCCN2CCOCC2)c1.O=C(O)C(F)(F)F.O=C(O)C(F)(F)F`: the MIC is over 32 µg/mL in test [1]; over 32 µg/mL in test [2]; over 32 µg/mL in test [3]; 4 µg/mL in test [4]; over 32 µg/mL in test [6]; over 32 µg/mL in test [7]. In addition, the MIC in test [8] was over 32 µg/mL. For the same compound, in test [5], the CC50 was found to be 4.65 µg/mL.
Regarding `COc1cccc(/C=C/c2ccc(C(=O)Nc3cc(C(=O)Nc4cc(C(=O)NCCN5CCOCC5)n(CCCc5cn(CCc6ccccc6)nn5)c4)n(C)c3)cc2)c1.O=C(O)C(F)(F)F`, the MIC in test [1] is over 32 µg/mL; in test [2], 32 µg/mL; in test [3], over 32 µg/mL; in test [4], over 32 µg/mL; in test [6], over 32 µg/mL; in test [7], over 32 µg/mL. This compound came in with an MIC in test [8] of over 32 µg/mL. The CC50 in test [5] was over 32 µg/mL.
As to `COc1ccc(/C=C/c2ccc(C(=O)Nc3cc(C(=O)Nc4cc(C(=O)NCCN5CCC(OC)CC5)n(C)c4)n(C)c3)cc2)cc1.O=C(O)C(F)(F)F`, the MIC in test [1], in test [2], in test [3], in test [4], in test [6] and in test [7] was over 32 µg/mL each time. Besides, the MIC in test [8] is over 32 µg/mL. For the same compound, the CC50 in test [5] was 6.43 µg/mL.
For `Cn1cc(NC(=O)c2cc(NC(=N)c3ccccc3)cn2C)cc1C(=O)NCCC(=N)N.O=C(O)C(F)(F)F.O=C(O)C(F)(F)F`, the MIC in test [1], in test [2], in test [3], in test [4], in test [6] and in test [7] was over 32 µM in each case. This compound also displayed an MIC in test [8] of over 32 µM. For the same compound, the CC50 in test [5] was over 32 µg/mL.
Consider `Cc1ncc(Cn2cc(CCOS(C)(=O)=O)nn2)c(N)n1`, for which the MIC was 1 µg/mL in test [1]; 2 µg/mL in test [2]; over 32 µg/mL in test [3]; over 32 µg/mL in test [4]; over 32 µg/mL in test [6]; over 32 µg/mL in test [7]. The same compound came in with an MIC in test [8] of over 32 µg/mL. The CC50 in test [5] was over 32 µg/mL.
As to `Cn1cc(NC(=O)c2ccc(/C=C/c3ccncc3)cc2)cc1C(=O)Nc1cc(C(=O)NCCN2CCOCC2)n(CCCSc2ccccc2)c1.O=C(O)C(F)(F)F.O=C(O)C(F)(F)F`, the MIC in test [1], in test [2], in test [3], in test [4], in test [6] and in test [7] was over 32 µg/mL in each case. The MIC in test [8] was over 32 µg/mL. In addition, the CC50 in test [5] was over 32 µg/mL.
